Series [1] is described as follows: Plasma 4-CNAB concentration (Example 1). It counts as in vivo, human. The following applies: after start of meal intake; 200 mg or 400 mg 4-CNAB capsules. The procedure:
During each treatment session, blood samples were collected for determination of plasma concentrations of 4-CNAB, insulin and C-peptide, and for blood glucose concentration. Sampling started 1 hour before intake of the test meal and continued until 6 hours thereafter. Blood samples were drawn via a venous cannula and collected related to the start of the test meal at time point 0. The timing of scheduled samples could be adjusted according to clinical needs or needs for pharmacokinetic data. The duration of each session was approximately 8-9 hours. All experiments were performed after an overnight fast of approximately 12 hours.
Blood samples for determination of 4-CNAB plasma concentrations (2 mL in sodium heparin tube) were drawn 10, 20, 30, 40, 60, 90, 120, 240 and 360 minutes after start of meal intake (9 samples per session). Blood samples for determination of insulin and C-peptide plasma concentrations (5 mL in sodium heparin tube) were drawn at −60 and −30 minutes, at time 0 (start of meal intake), and after 10, 20, 30, 40, 50, 60, 75, 90, 105, 120, 150, 180, 210, 240, 300, and 360 minutes (19 samples per session). Plasma concentrations of insulin were determined by a GLP-validated microparticle enzyme immunoassay (MEIA).
Blood samples for the determination of plasma concentrations of insulin, 4-CNAB and C-peptide were collected at defined intervals, as discussed above. […]

In the next series the test system is Sprague-Dawley rats. Nature of the series: Oral repeated dose toxicity studies in rats. It counts as in vivo, rat. The procedure:
(§1) Toxicology studies were also conducted in rats and monkeys to assess the potential toxicity of 4-CNAB, alone or in combination with insulin. Based on the 14-day oral repeated dose toxicity studies, the NOAEL (No-Adverse Effect Level) was estimated to be 500 mg/kg in Sprague-Dawley rats, and 400 mg/kg in rhesus monkeys. […] Developmental and reproductive toxicology studies have not yet been conducted.

A further series deals with rhesus monkeys. Nature of the series: Oral repeated dose toxicity studies in monkeys. Format: in vivo, rhesus monkey. The procedure: as §1
A further series in a line: Genotoxicity studies. The following applies: four genotoxicity studies. The procedure:
as §1

The next series has as its system receptors. Nature of the series: Receptor binding screening assays. The procedure:
Insulin/4-CNAB capsules were evaluated by Emisphere Technologies, Inc. in a nonclinical program that included pharmacological screening, pharmacokinetic and metabolic profiles, and toxicity assessments in rats and monkeys. […] Similarly, for a fixed oral dose of 4-CNAB, insulin absorption increased with increasing doses of insulin.

Series [2] is described as follows: Moisture content / hygroscopicity of 4-CNAB. It counts as physicochemical. The following applies: below 75% RH.
For series [3] the following is noted: cited from earlier work; for time to peak plasma/serum drug concentration (tmax): fasting or immediately prior to a meal.
Series [4] concerns blood glucose. The following applies: oral sulfonylureas; cited from earlier work.
The subject of series [5] is blood glucose. The following applies: marketed insulin preparations; cited from earlier work.
Where [6] appears, read: dosed three times daily before meals.

Like-named read-outs stand apart in the source and are kept apart here.

The term NOAEL denotes the highest dose or exposure tested at which no adverse effect was seen. `O=C([O-])CCCNC(=O)c1ccc(Cl)cc1O.[Na+]` [4-CNAB, sodium N-[4-(4-chloro-2 hydroxybenzoyl)amino]butyrate]: the “plasma 4-CNAB concentration after 2 hours relative to the levels seen after 10 minutes” value in [1] is “less than 10%”. Moreover, the “NOAEL (No-Adverse Effect Level)” value was 500 mg/kg in the series on Sprague-Dawley rats (14-day oral repeated dose, Sprague-Dawley rats, 4-CNAB alone or in combination with insulin) and 400 mg/kg in the series with rhesus monkeys (14-day oral repeated dose, rhesus monkeys). Also, the NOAEL with Sprague-Dawley rats (90-day oral repeated dose, rats) is 250 mg/kg; in the series on rhesus monkeys (90-day oral repeated dose, monkeys), 600 mg/kg. Besides, the genotoxicity findings result in “Genotoxicity studies” is on record as “no positive findings”. Also, the inherent pharmacological activity entry in the series on receptors is listed as “no inherent pharmacological activity”. The compound further had a residual moisture content in series [2] of under 0.5%.
As to `CCc1ccc(CCOc2ccc(CC3SC(=O)NC3=O)cc2)nc1` (stereo not drawn) [ACTOS® thiazolidinedione, pioglitazone], the “first measurable in serum” value in [3] (oral, fasting state) was at most 30 min. In series [3] (oral), the “time to peak plasma/serum drug concentration (tmax)” value was at most 2 h.
Turning to `CN(CCOc1ccc(CC2SC(=O)NC2=O)cc1)c1ccccn1` (stereo not drawn) [AVANDIA® thiazolidinedione, rosiglitazone], the “time to peak concentration with food” value in series [3] (food effect) was “about 1.75 hours”. Also, the “time to peak plasma/serum drug concentration (tmax)” value in series [3] (oral) is at most 1 h.
Turning to `CC(=O)c1ccc(S(=O)(=O)NC(=O)NC2CCCCC2)cc1` [Acetohexamide], the onset of action with blood glucose [4] was 1 h.
As to `CCCNC(=O)NS(=O)(=O)c1ccc(Cl)cc1` [Chlorpropamide], in the series with blood glucose [4], the duration of action is 72 h and the onset of action result is recorded as “one”.
Turning to `CCC1=C(C)CN(C(=O)NCCc2ccc(S(=O)(=O)NC(=O)N[C@H]3CC[C@H](C)CC3)cc2)C1=O` [Glimepiride], in the series with blood glucose [4], the duration of action is 18 to 28 h and the onset of action is 2 h.
For `Cc1cnc(C(=O)NCCc2ccc(S(=O)(=O)NC(=O)NC3CCCCC3)cc2)cn1` [Glipizide], in the series with blood glucose [4], the duration of action was 10 to 24 h and the onset of action entry is “one”.
In the case of `Cc1ccc(S(=O)(=O)NC(=O)NN2CCCCCC2)cc1` [Tolazamide], the onset of action in the series on blood glucose [4] is 4 to 6 h.
With `COc1ccc(Cl)cc1C(=O)NCCc1ccc(S(=O)(=O)NC(=O)NC2CCCCC2)cc1` [glyburide], in the series on blood glucose [4], the duration of action is 18 to 24 h and the onset of action was 1.5 h.
On to `CC(C)[C@H]1CC[C@H](C(=O)N[C@H](Cc2ccccc2)C(=O)O)CC1` [nateglinide], for which the “time to stimulation of pancreatic insulin secretion” value in series [3] (after oral administration) is at most 20 min. In series [3] (setting [6]), the “fall of plasma insulin to baseline after dosing” value was at most 4 h and the “time of peak plasma insulin levels after dosing” value was about 1 h. Moreover, the “time to peak plasma/serum drug concentration (tmax)” value in [3] (oral) is given as “one”.
Take `CCOc1cc(CC(=O)N[C@@H](CC(C)C)c2ccccc2N2CCCCC2)ccc1C(=O)O` [repaglinide]: in series [3] (food effect), the “decrease in AUC when given with food” value is given as 12.4% and the “decrease in Cmax when given with food” value is 20%. Moreover, the “time to peak plasma/serum drug concentration (tmax)” value in [3] (oral) was at most 1 h.
For the compound `CCCCNC(=O)NS(=O)(=O)c1ccc(C)cc1` [tolbutamide], in the series on blood glucose [4], the duration of action is 6 to 12 h and the onset of action is 1 h.
Regarding Glargine insulin: long-acting insulin, in the series on blood glucose [5], the duration of activity is 24 h and the “peak time of effect” value is “no peak effect”.
With Lantus®, the duration of activity result in the series with blood glucose [5] is “up to 24 hours”.
Ultralente insulin: in the series with blood glucose [5], the onset of action was 2 to 4 h and the “peak time of effect” value is 8 to 20 h.

These data come from US8324156B2, “Oral insulin therapies and protocol” (Emisphere Technologies, Inc., priority 2003, dated 2012).
